Source: patent US20090292025A1, “Novel crystalline forms of armodafinil and preparation thereof” (Teva Pharmaceutical Industries Ltd., priority 2006, published 2009)

Key:
[1] = Prisinzano et al., Tetrahedron: Asymmetry (2004); cited from earlier work
[2] = Exposure to 100% relative humidity, followed by TGA and XRD; type: physicochemical
Method: Another embodiment of the invention encompasses armodafinil monohydrate. Armodafinil monohydrate may be prepared by a method comprising exposing armodafinil Form 1 to 100% relative humidity at a temperature of about 30° C. to about 60° C. for at least 7 days. Preferably, the heating is to a temperature of about 30° C. to about 40° C. In one example 200 mg of armodafinil Form I is heated at 30° C. in 100% relative humidity for 13 days.
X-Ray powder diffraction data were obtained by using methods known in the art. A SCINTAG powder X-ray diffractometer model X′TRA equipped with a solid-state detector was employed with copper radiation of 1.5418 Å and a round aluminum sample holder with zero background. The scanning parameters included: range: 2-40 degrees two-theta; scan mode: continuous scan; step size: 0.05 deg.; and a rate of 5 deg/min. All peak positions are within ±0.2 degrees two theta.
TGA analysis was performed using a Metler M3 thermo gravimeter. Samples of about 8 mg were analyzed in standard 150 μl alumina crucibles covered by lids with 1 hole. Each sample was scanned at a rate of 10° C./min from 25° C. to 200° C. A blank was subtracted from the sample. The oven was constantly purged with nitrogen gas at a flow rate of 40 ml/min.
Armodafinil Form A (200 mg) was exposed to 100% humidity for 7 days at 30° C. The XRD diffractogram of armodafinil Form I is illustrated in FIG. 3.

[3] = Stability of the crystal form under pressure of 2-10 tons (tablet compression); type: physicochemical
Method: Form A is stable by pressure of about 2-10 tons which is used in the compression stage during the tablet preparation.
A further method of preparing armodafinil Form I comprises submitting armodafinil Form IV to a pressure of about 2 tons to about 10 tons to obtain armodafinil Form I. Preferably, the pressure is applied for a period of about 1 minute to about 5 minutes. The time will depend upon the amount of armodafinil Form IV; for example, armodafinil 100 mg of Form IV is pressed with 10 tons for 1 minute.
Armodafinil Form IV (100 mg) was pressed with pressure of 2 tons or 10 tons for 1 min forming a pressed sample.

[4] = Heating at 145° C., XRD of the heated sample; type: physicochemical; details: 200 mg heated at 145° C. for 10 min
Method: Armodafinil Form I may also be prepared by drying armodafinil Form IV. Preferably, the process comprises heating armodafinil Form IV to a temperature of about 120° C. to 150° C. for at least about 10 minutes. Preferably, the heating is to a temperature of about 145° C. Preferably, the heating is conducted over a period of about 15 minutes about 30 minutes. For example, armodafinil Form IV 200 mg is heated for about 10 minutes. Form IV may be prepared according to WO 2004/060858.
Armodafinil Form IV (200 mg) was heated at 145° C. for 10 min forming a heated sample.

[5] = Grinding with mortar and pestle, XRD of the ground sample; type: physicochemical; details: 100 mg ground with mortar and pestle for a few minutes
Method: Another method for preparing armodafinil Form I comprises grinding armodafinil Form IV. Preferably, the grinding is carried out over a period of about 1 minute to about 5 minutes, more preferably, about 1 min. Depending on the amount of armodafinil Form IV, different grinding methods may be used. For example, 200 mg of armodafinil Form IV is ground with a mortar and pestle for 1 minute.
Armodafinil Form IV (100 mg) was ground with mortar and pestle for a few minutes forming a ground sample.

[6] = Form A exposed to 100% humidity for 7 days at 30° C.
[7] = Form A, Initial (before exposure)
[8] = Form I exposed to 100% Relative Humidity at 30° C. for 13 days
[9] = Form I exposed to 100% Relative Humidity at 60° C. for 13 days
[10] = Form I, Initial (Table 1, 30° C. study)
[11] = Form I, Initial (Table 2, 60° C. study)

Structure (SMILES): NC(=O)C[S@@+]([O-])C(c1ccccc1)c1ccccc1 (single isomer, unassigned) [S enantiomer]
- Elimination from the body compared with the R enantiomer [1]: three times faster

Structure (SMILES): NC(=O)C[S@@+]([O-])C(c1ccccc1)c1ccccc1 [Armodafinil Form A, 2-[(R)-(diphenylmethyl)sulfinyl]acetamide]
- % Weight loss (by TGA) [2, 6]: 3.5%
- Crystal form (by XRD) [2, 6]: Form I
- % Weight loss (by TGA) [2, 7]: 0.3%
- Crystal form (by XRD) [2, 7]: Form A
- Stability by pressure ([3]; pressure of about 2-10 tons, as used in the compression stage of tablet preparation): stable

Structure (SMILES): NC(=O)C[S@@+]([O-])C(c1ccccc1)c1ccccc1 [Armodafinil Form IV, 2-[(R)-(diphenylmethyl)sulfinyl]acetamide]
- Crystal form (by XRD) of heated sample [4]: Form I
- Crystal form (by XRD) of pressed sample ([3]; 100 mg pressed with 2 tons or 10 tons for 1 min): Form I
- Crystal form (by XRD) of ground sample [5]: Form I

Structure (SMILES): NC(=O)C[S@@+]([O-])C(c1ccccc1)c1ccccc1 [armodafinil Form I, 2-[(R)-(diphenylmethyl)sulfinyl]acetamide]
- % Weight loss (by TGA) [2, 8]: 5.6%
- Crystal form (by XRD) [2, 8]: Form I
- % Weight loss (by TGA) [2, 9]: 7.4%
- Crystal form (by XRD) [2, 9]: Form I
- % Weight loss (by TGA) [2, 10]: 0.1%
- Crystal form (by XRD) [2, 10]: Form I
- % Weight loss (by TGA) [2, 11]: 0.1%
- Crystal form (by XRD) [2, 11]: Form I
